Reference: patent US20080177067A1, “Crystal forms of 9-hydroxy-risperidone (paliperidone)” (priority 2006, published 2008)

How the values were obtained:
[1] = Weight loss measured by TGA; format: physicochemical
[2] = Water content measured by KF titration; format: physicochemical

weight loss, as measured by TGA ([1]; between 25-145° C.)	water content, as measured by KF titration [2]	weight loss, as measured by TGA ([1]; between 25-168° C.)	weight loss, as measured by TGA ([1]; between 25-155° C.)	Structure (SMILES)
about 0.4%	about 0.5%			Cc1nc2n(c(=O)c1CCN1CCC(c3noc4cc(F)ccc34)CC1)CCCC2O (centres unmarked) [Form II, 3-[2-[4-(6-fluorobenzo[d]isoxazol-3-yl)-1-piperidyl]ethyl]-7-hydroxy-4-methyl-1,5-diazabicyclo[4.4.0]deca-3,5-dien-2-one]
	about 0.2%	about 19.2%		Cc1nc2n(c(=O)c1CCN1CCC(c3noc4cc(F)ccc34)CC1)CCCC2O (centres unmarked) [Form III, 3-[2-[4-(6-fluorobenzo[d]isoxazol-3-yl)-1-piperidyl]ethyl]-7-hydroxy-4-methyl-1,5-diazabicyclo[4.4.0]deca-3,5-dien-2-one]
	about 0.3%		about 0.1%	Cc1nc2n(c(=O)c1CCN1CCC(c3noc4cc(F)ccc34)CC1)CCCC2O (centres unmarked) [Form V, 3-[2-[4-(6-fluorobenzo[d]isoxazol-3-yl)-1-piperidyl]ethyl]-7-hydroxy-4-methyl-1,5-diazabicyclo[4.4.0]deca-3,5-dien-2-one]
	about 0.5%	about 0.6%		Cc1nc2n(c(=O)c1CCN1CCC(c3noc4cc(F)ccc34)CC1)CCCC2O (centres unmarked) [Form I, 3-[2-[4-(6-fluorobenzo[d]isoxazol-3-yl)-1-piperidyl]ethyl]-7-hydroxy-4-methyl-1,5-diazabicyclo[4.4.0]deca-3,5-dien-2-one]
